In article PMC10569036:

Assays:
[1] = shake flask on a mixture of 185; loss from the water phase only; LC-Orbitrap peak areas; conditions: room
[2] = shake flask on a mixture of 185; loss from the water phase only; LC-QTOF peak areas; conditions: room

| SMILES | log partition 1-octanol / HPLC water, unbuffered, traces of methanol / DMSO [1] | log partition butyl acetate / HPLC water, unbuffered, traces of methanol / DMSO [1] | log partition chloroform / HPLC water, unbuffered, traces of methanol / DMSO [1] | log partition cyclohexane / HPLC water, unbuffered, traces of methanol / DMSO [1] | log partition dichloromethane / HPLC water, unbuffered, traces of methanol / DMSO [1] | log partition n-hexane / HPLC water, unbuffered, traces of methanol / DMSO [1] | log partition n-octane / HPLC water, unbuffered, traces of methanol / DMSO [1] | log partition n-undecane / HPLC water, unbuffered, traces of methanol / DMSO [1] | log partition oleylalcohol / HPLC water, unbuffered, traces of methanol / DMSO [1] | log partition toluene / HPLC water, unbuffered, traces of methanol / DMSO [1] | log partition 1-octanol / HPLC water, unbuffered, traces of methanol / DMSO [2] | log partition butyl acetate / HPLC water, unbuffered, traces of methanol / DMSO [2] | log partition chloroform / HPLC water, unbuffered, traces of methanol / DMSO [2] | log partition cyclohexane / HPLC water, unbuffered, traces of methanol / DMSO [2] | log partition dichloromethane / HPLC water, unbuffered, traces of methanol / DMSO [2] | log partition n-hexane / HPLC water, unbuffered, traces of methanol / DMSO [2] | log partition n-octane / HPLC water, unbuffered, traces of methanol / DMSO [2] | log partition n-undecane / HPLC water, unbuffered, traces of methanol / DMSO [2] | log partition oleylalcohol / HPLC water, unbuffered, traces of methanol / DMSO [2] | log partition toluene / HPLC water, unbuffered, traces of methanol / DMSO [2] |
| --- | --- | --- | --- | --- | --- | --- | --- | --- | --- | --- | --- | --- | --- | --- | --- | --- | --- | --- | --- | --- |
| CCCOC(=O)c1ccc(C(=O)OCCC)nc1 | 1.279 log10 | 1.476 log10 | 1.242 log10 | 1.195 log10 | 1.399 log10 | 1.051 log10 | 1.355 log10 | 0.8718 log10 | 1.396 log10 | 1.5 log10 | 2.274 log10 | 2.305 log10 | 2.347 log10 | 2.074 log10 | 2.554 log10 | 2.244 log10 | 2.086 log10 | 2.019 log10 | 2.412 log10 | 2.485 log10 |
| NC(=O)Nc1ccc(Cl)cc1 | 0.591 log10 | 0.6709 log10 | -0.4936 log10 |  | -0.3897 log10 |  |  |  | 0.6552 log10 | -1.194 log10 | 1.214 log10 | 0.7995 log10 | -0.1363 log10 |  | -0.2421 log10 |  |  |  | 1.051 log10 | -0.9053 log10 |
| Cc1cc2c3c(c1)C(c1ccccc1)=N[C@@H](NC(=O)c1ccncc1)C(=O)N3CC2 | 1.331 log10 | 2.844 log10 | 1.438 log10 | 0.6947 log10 | 2.402 log10 | -0.4559 log10 | 0.088 log10 | 0.07291 log10 | 1.282 log10 | 1.875 log10 | 2.552 log10 | 2.569 log10 | 2.171 log10 | 0.1916 log10 | 2.144 log10 | -0.2402 log10 | -0.1186 log10 | -0.161 log10 | 2.273 log10 | 2.127 log10 |
| CC(C)C1(C)N=C(c2nc3ccccc3cc2C(=O)O)NC1=O (centres unmarked) | 0.3193 log10 | -0.573 log10 | -0.8011 log10 | -1.428 log10 | -0.4847 log10 | -1.375 log10 | -1.474 log10 | -1.445 log10 | -0.2597 log10 | -1.419 log10 | -0.1003 log10 | 0.3218 log10 | -1.426 log10 | -1.269 log10 | -0.4187 log10 | -0.9732 log10 | -1.466 log10 | -1.153 log10 | 0.635 log10 | -0.5162 log10 |
| Oc1c(Cl)cc(Cl)cc1Sc1cc(Cl)cc(Cl)c1O |  |  |  |  |  |  |  |  |  |  | 0.7477 log10 | 1.778 log10 | 1.227 log10 | 1.174 log10 | 1.541 log10 | 1.101 log10 | 1.178 log10 | 0.844 log10 | 1.386 log10 | 1.7 log10 |
| O=S(=O)(O)C(F)(F)F |  |  |  |  |  |  |  |  |  |  | -1.49 log10 | -1.234 log10 | 1.635 log10 | -0.7044 log10 | 1.509 log10 | -0.8208 log10 | -0.9229 log10 | -0.955 log10 | -1.56 log10 | -0.8212 log10 |

Continued, in another order:

| log partition 1-octanol / HPLC water, unbuffered, traces of methanol / DMSO [1] | log partition butyl acetate / HPLC water, unbuffered, traces of methanol / DMSO [1] | log partition chloroform / HPLC water, unbuffered, traces of methanol / DMSO [1] | log partition cyclohexane / HPLC water, unbuffered, traces of methanol / DMSO [1] | log partition dichloromethane / HPLC water, unbuffered, traces of methanol / DMSO [1] | log partition n-hexane / HPLC water, unbuffered, traces of methanol / DMSO [1] | log partition n-octane / HPLC water, unbuffered, traces of methanol / DMSO [1] | log partition n-undecane / HPLC water, unbuffered, traces of methanol / DMSO [1] | log partition oleylalcohol / HPLC water, unbuffered, traces of methanol / DMSO [1] | log partition toluene / HPLC water, unbuffered, traces of methanol / DMSO [1] | SMILES | log partition 1-octanol / HPLC water, unbuffered, traces of methanol / DMSO [2] | log partition butyl acetate / HPLC water, unbuffered, traces of methanol / DMSO [2] | log partition chloroform / HPLC water, unbuffered, traces of methanol / DMSO [2] | log partition cyclohexane / HPLC water, unbuffered, traces of methanol / DMSO [2] | log partition dichloromethane / HPLC water, unbuffered, traces of methanol / DMSO [2] | log partition n-hexane / HPLC water, unbuffered, traces of methanol / DMSO [2] | log partition n-octane / HPLC water, unbuffered, traces of methanol / DMSO [2] | log partition n-undecane / HPLC water, unbuffered, traces of methanol / DMSO [2] | log partition oleylalcohol / HPLC water, unbuffered, traces of methanol / DMSO [2] | log partition toluene / HPLC water, unbuffered, traces of methanol / DMSO [2] |
| --- | --- | --- | --- | --- | --- | --- | --- | --- | --- | --- | --- | --- | --- | --- | --- | --- | --- | --- | --- | --- |
| 1.814 log10 | 2.093 log10 | 1.499 log10 | 0.0278 log10 | 1.694 log10 | -0.1668 log10 | -0.1168 log10 | -1.167 log10 | 1.762 log10 | 0.9569 log10 | c1ccc2[nH]c(-c3cscn3)nc2c1 | 0.8781 log10 | 0.7498 log10 | 0.5738 log10 | -1.051 log10 | 0.733 log10 | -0.9485 log10 | -1.018 log10 | -1.324 log10 | 0.7334 log10 | 0.2898 log10 |
| 1.665 log10 | 2.111 log10 | 0.8448 log10 | -0.5373 log10 | 1.668 log10 | -1.173 log10 | -0.7644 log10 | -1.267 log10 | 1.444 log10 | 0.1696 log10 | O=C(c1ccccc1)c1ccc(O)cc1O | 2.033 log10 | 2.368 log10 | 1.568 log10 | -0.7702 log10 | 1.235 log10 | -0.7955 log10 | -0.8875 log10 | -0.7905 log10 | 1.696 log10 | 1.076 log10 |
| 3.526 log10 | 2.502 log10 | 1.196 log10 | -1.221 log10 | 1.153 log10 | -1.633 log10 | -1.139 log10 | -1.372 log10 | 2.478 log10 | -0.2525 log10 | CCOc1ccc2[nH]cc(C(=O)NCc3ccccc3)c(=O)c2n1 | 2.233 log10 | 1.386 log10 | 2.411 log10 | -1.713 log10 | 1.249 log10 | -1.238 log10 | -1.123 log10 | -1.345 log10 | 2.032 log10 | -0.4984 log10 |
